Laboratory results reported in patent publication US20250163104A1, “MACROCYCLIC IMMUNOMODULATORS” (priority 2021, published 2025).
Where a SMILES comes first, the peptide text is derived from it. Bridges are numbered along the chain shown (N, C = ends). [ ]: non-standard residue; d: D form. The star is where a group is joined. Phe(4-COOH) = N[C@@H](Cc1ccc(C(=O)O)cc1)C(=O)O; Bip = N[C@@H](Cc1ccc(-c2ccccc2)cc1)C(=O)O; Phe(3-Me) = Cc1cccc(C[C@H](N)C(=O)O)c1; 4Pal = N[C@@H](Cc1ccncc1)C(=O)O; Cha = N[C@@H](CC1CCCCC1)C(=O)O; Carboxymethyl = O=C(O)C*; Orn = NCCC[C@H](N)C(=O)O; Pra = C#CC[C@H](N)C(=O)O; Dab = NCC[C@H](N)C(=O)O; Nva = CCC[C@H](N)C(=O)O; Dap = NC[C@H](N)C(=O)O; Propargyl = C#CC*

Target: T1, human PD-1 / PD-L1-Ig binding on Jurkat cell line over-expressing human PD-1 (Jurkat-PD-1) (Homo sapiens, UniProt Q15116)
T1 construct: expressed in transfected cells; host or cells: Jurkat
T1 sequence (Q15116 25-288): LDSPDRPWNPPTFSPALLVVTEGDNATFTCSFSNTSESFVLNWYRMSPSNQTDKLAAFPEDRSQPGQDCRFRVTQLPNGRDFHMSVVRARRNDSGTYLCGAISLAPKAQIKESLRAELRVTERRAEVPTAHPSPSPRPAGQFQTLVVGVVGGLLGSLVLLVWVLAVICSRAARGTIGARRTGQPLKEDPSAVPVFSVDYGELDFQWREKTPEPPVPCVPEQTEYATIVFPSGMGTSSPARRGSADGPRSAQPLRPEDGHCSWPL
Assay: Jurkat-PD-1 Cell Binding High-Content Screening Assay (CBA)
Assay type: cell-based
Details: Jurkat-PD-1 cells, PE-labeled PD-L1-Ig 20 nM final; read-out: Jurkat HPD1_PDL1 IC50
In short: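 Read-out: high-content imaging of PE-tagged PD-L1-Ig bound to Jurkat cells overexpressing human PD-1, after fixation with 4% paraformaldehyde and Hoechst 33342 nuclear staining. Ligand was used at 20 nM final for 1 hour, after a 2 h compound exposure at 37° C in serum-containing DMEM.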

SMILES | IC50
C#CCOc1ccc(C[C@@H]2NC(=O)[C@H](CCN)NC(=O)CSC[C@@H](C(=O)N[C@@H](CCN)C(N)=O)NC(=O)[C@H](CCC(=O)O)NC(=O)[C@H](C(C)C)NC(=O)[C@H](CC3CCCCC3)NC(=O)[C@H](CCN)NC(=O)[C@@H](CC(C)C)NC(=O)[C@H](CCCN)NC(=O)[C@H](Cc3ccc(OCC(=O)O)cc3)NC(=O)[C@H](Cc3ccc(-c4ccccc4)cc3)NC(=O)[C@H](Cc3ccc(OCC(=O)O)cc3)NC(=O)[C@H](Cc3cccc(C)c3)NC(=O)[C@H](CC(=O)O)NC2=O)cc1 [Compound 1820] ({CH2CO}-[Dab]Y(Propargyl)D[Phe(3-Me)]Y(Carboxymethyl)[Bip]Y(Carboxymethyl)[Orn][dL][Dab][Cha]VEC[Dab]-NH2; thioether N-14) | 17.2 nM
C#CCOc1ccc(C[C@@H]2NC(=O)[C@H](C(C)C)NC(=O)[C@H](CC3CCCCC3)NC(=O)[C@H](CCN)NC(=O)[C@@H](CC(C)C)NC(=O)[C@H](CCCN)NC(=O)[C@H](Cc3ccc(OCC(=O)O)cc3)NC(=O)[C@H](Cc3ccc(-c4ccccc4)cc3)NC(=O)[C@H](Cc3ccc(OCC(=O)O)cc3)NC(=O)[C@H](Cc3cccc(C)c3)NC(=O)[C@H](CC(=O)O)NC(=O)[C@H](Cc3ccc(OCC(=O)O)cc3)NC(=O)[C@H](Cc3ccncc3)NC(=O)CSC[C@@H](C(=O)N[C@@H](CCN)C(N)=O)NC2=O)cc1 [Compound 1821] ({CH2CO}-[4Pal]Y(Carboxymethyl)D[Phe(3-Me)]Y(Carboxymethyl)[Bip]Y(Carboxymethyl)[Orn][dL][Dab][Cha]VY(Propargyl)C[Dab]-NH2; thioether N-14) | 191 nM
C#CC[C@H](NC(=O)[C@H](CCN)NC(=O)[C@@H]1CSCC(=O)N[C@@H](CCN)C(=O)N[C@@H](Cc2ccc(OCC(=O)O)cc2)C(=O)N[C@@H](CC(=O)O)C(=O)N[C@@H](Cc2cccc(C)c2)C(=O)N[C@@H](Cc2ccc(C(=O)O)cc2)C(=O)N[C@@H](Cc2ccc(-c3ccccc3)cc2)C(=O)N[C@@H](Cc2ccc(C(=O)O)cc2)C(=O)N[C@@H](CCCN)C(=O)N[C@H](CC(C)C)C(=O)N[C@@H](CCN)C(=O)N[C@@H](CC2CCCCC2)C(=O)N[C@@H](C(C)C)C(=O)N[C@@H](CCC(=O)O)C(=O)N1)C(=O)O [Compound 1823] ({CH2CO}-[Dab]Y(Carboxymethyl)D[Phe(3-Me)][Phe(4-COOH)][Bip][Phe(4-COOH)][Orn][dL][Dab][Cha]VEC[Dab][Pra]-OH; thioether N-14) | 10.1 nM
C#CC[C@H](NC(=O)[C@H](CCN)NC(=O)[C@@H]1CSCC(=O)N[C@@H](CN)C(=O)N[C@@H](Cc2ccc(OCC(=O)O)cc2)C(=O)N[C@@H](CC(=O)O)C(=O)N[C@@H](Cc2cccc(C)c2)C(=O)N[C@@H](Cc2ccc(C(=O)O)cc2)C(=O)N[C@@H](Cc2ccc(-c3ccccc3)cc2)C(=O)N[C@@H](Cc2ccc(C(=O)O)cc2)C(=O)N[C@@H](CCCN)C(=O)N[C@H](CC(C)C)C(=O)N[C@@H](CCN)C(=O)N[C@@H](CC2CCCCC2)C(=O)N[C@@H](C(C)C)C(=O)N[C@@H](CCC(=O)O)C(=O)N1)C(=O)O [Compound 1825] ({CH2CO}-[Dap]Y(Carboxymethyl)D[Phe(3-Me)][Phe(4-COOH)][Bip][Phe(4-COOH)][Orn][dL][Dab][Cha]VEC[Dab][Pra]-OH; thioether N-14) | 182 nM

Stronger by IC50, values ahead:

IC50 | SMILES
9.3 nM | C#CC[C@H](NC(=O)[C@H](CCN)NC(=O)[C@@H]1CSCC(=O)N[C@@H]([C@@H](C)O)C(=O)N[C@@H](Cc2ccc(OCC(=O)O)cc2)C(=O)N[C@@H](CC(=O)O)C(=O)N[C@@H](Cc2cccc(C)c2)C(=O)N[C@@H](Cc2ccc(C(=O)O)cc2)C(=O)N[C@@H](Cc2ccc(-c3ccccc3)cc2)C(=O)N[C@@H](Cc2ccc(C(=O)O)cc2)C(=O)N[C@@H](CCCN)C(=O)N[C@H](CC(C)C)C(=O)N[C@@H](CCN)C(=O)N[C@@H](CC2CCCCC2)C(=O)N[C@@H](C(C)C)C(=O)N[C@@H](CCC(=O)O)C(=O)N1)C(=O)O [Compound 1824] ({CH2CO}-TY(Carboxymethyl)D[Phe(3-Me)][Phe(4-COOH)][Bip][Phe(4-COOH)][Orn][dL][Dab][Cha]VEC[Dab][Pra]-OH; thioether N-14)
5.8 nM | C#CC[C@H](NC(=O)[C@H](CCN)NC(=O)[C@@H]1CSCC(=O)N[C@@H](CCC)C(=O)N[C@@H](Cc2ccc(OCC(=O)O)cc2)C(=O)N[C@@H](CC(=O)O)C(=O)N[C@@H](Cc2cccc(C)c2)C(=O)N[C@@H](Cc2ccc(C(=O)O)cc2)C(=O)N[C@@H](Cc2ccc(-c3ccccc3)cc2)C(=O)N[C@@H](Cc2ccc(C(=O)O)cc2)C(=O)N[C@@H](CCCN)C(=O)N[C@H](CC(C)C)C(=O)N[C@@H](CCN)C(=O)N[C@@H](CC2CCCCC2)C(=O)N[C@@H](C(C)C)C(=O)N[C@@H](CCC(=O)O)C(=O)N1)C(=O)O [Compound 1822] ({CH2CO}-[Nva]Y(Carboxymethyl)D[Phe(3-Me)][Phe(4-COOH)][Bip][Phe(4-COOH)][Orn][dL][Dab][Cha]VEC[Dab][Pra]-OH; thioether N-14)
3.7 nM | C#CCOc1ccc(C[C@@H]2NC(=O)[C@H](CN)NC(=O)CSC[C@@H](C(=O)N[C@@H](CCN)C(N)=O)NC(=O)[C@H](CCC(=O)O)NC(=O)[C@H](C(C)C)NC(=O)[C@H](CC3CCCCC3)NC(=O)[C@H](CCN)NC(=O)[C@@H](CC(C)C)NC(=O)[C@H](CCCN)NC(=O)[C@H](Cc3ccc(OCC(=O)O)cc3)NC(=O)[C@H](Cc3ccc(-c4ccccc4)cc3)NC(=O)[C@H](Cc3ccc(OCC(=O)O)cc3)NC(=O)[C@H](Cc3cccc(C)c3)NC(=O)[C@H](CC(=O)O)NC2=O)cc1 [Compound 1819] ({CH2CO}-[Dap]Y(Propargyl)D[Phe(3-Me)]Y(Carboxymethyl)[Bip]Y(Carboxymethyl)[Orn][dL][Dab][Cha]VEC[Dab]-NH2; thioether N-14)
3.6 nM | C#CCOc1ccc(C[C@@H]2NC(=O)CSC[C@@H](C(=O)N[C@@H](CCN)C(N)=O)NC(=O)[C@H](CCC(=O)O)NC(=O)[C@H](C(C)C)NC(=O)[C@H](CC3CCCCC3)NC(=O)[C@H](CCN)NC(=O)[C@@H](CC(C)C)NC(=O)[C@H](CCCN)NC(=O)[C@H](Cc3ccc(OCC(=O)O)cc3)NC(=O)[C@H](Cc3ccc(-c4ccccc4)cc3)NC(=O)[C@H](Cc3ccc(OCC(=O)O)cc3)NC(=O)[C@H](Cc3cccc(C)c3)NC(=O)[C@H](CC(=O)O)NC(=O)[C@H](Cc3ccc(OCC(=O)O)cc3)NC2=O)cc1 [Compound 1817] ({CH2CO}-Y(Propargyl)Y(Carboxymethyl)D[Phe(3-Me)]Y(Carboxymethyl)[Bip]Y(Carboxymethyl)[Orn][dL][Dab][Cha]VEC[Dab]-NH2; thioether N-14)
2.3 nM | C#CCOc1ccc(C[C@@H]2NC(=O)[C@H](Cc3cccc(C)c3)NC(=O)[C@H](CC(=O)O)NC(=O)[C@H](Cc3ccc(OCC(=O)O)cc3)NC(=O)[C@H](CCCNC(=N)N)NC(=O)CSC[C@@H](C(=O)N[C@@H](CCN)C(N)=O)NC(=O)[C@H](CCC(=O)O)NC(=O)[C@H](C(C)C)NC(=O)[C@H](CC3CCCCC3)NC(=O)[C@H](CCN)NC(=O)[C@@H](CC(C)C)NC(=O)[C@H](CCCN)NC(=O)[C@H](Cc3ccc(OCC(=O)O)cc3)NC(=O)[C@H](Cc3ccc(-c4ccccc4)cc3)NC2=O)cc1 [Compound 1818] ({CH2CO}-RY(Carboxymethyl)D[Phe(3-Me)]Y(Propargyl)[Bip]Y(Carboxymethyl)[Orn][dL][Dab][Cha]VEC[Dab]-NH2; thioether N-14)
